Patent US11109593B2, “Isoxazolin-5-one derivative and herbicide containing same as active ingredient” (HOKKO CHEMICAL INDUSTRY CO., LTD., priority 2017, dated 2021)

Legend:
Assay type in all cases: in vivo
Echinochloa crus-galli [1] = assay: Test Example 1: herbicidal effect test by treatment of rice paddy soil (immediately after seeding); details: 120 g/10a active ingredient, dry weight vs untreated area, 14 days after treatment
Method in brief: (§1)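 Application occurs immediately after seeding, with diluted emulsion added to paddy water (about 3 cm deep) over puddled, fertilized soil at 120 g active ingredient per 10 ares. Herbicidal rate is calculated from mean dry weight against untreated controls 14 days later.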

Scirpus juncoides [2] = assay: as above; details: 120 g/10a active ingredient, dry weight vs untreated area, 14 days after treatment
Method in brief: as §1

[3] = test system: broad leaf weeds (Lindernia pyxidaria and Monochoria vaginalis); assay: as above; details: 120 g/10a active ingredient, dry weight vs untreated area, 14 days after treatment
Method in brief: as §1

Echinochloa crus-galli [4] = assay: Test Example 2: herbicidal effect test by treatment during growing period in paddy rice cultivation (seven days after seeding); details: 120 g/10a active ingredient, assessed 14 days after treatment, dry weight vs untreated area
Method in brief: (§2)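 Seeds sown 0–1 cm deep in puddled, fertilised paddy soil with about 3 cm standing water in a glass greenhouse. Diluted emulsion dropped into the water seven days after seeding at 120 g active ingredient per 10 ares. Herbicidal rate (%) from mean dry weight vs untreated, duplicate, 14 days after treatment.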

Scirpus juncoides [5] = assay: as above; details: 120 g/10a active ingredient, assessed 14 days after treatment, dry weight vs untreated area
Method in brief: as §2

[6] = test system: broad leaf weeds (Lindernia pyxidaria and Monochoria vaginalis); assay: as above; details: 120 g/10a active ingredient, assessed 14 days after treatment, dry weight vs untreated area
Method in brief: as §2

Amaranthus viridis [7] = assay: Test Example 3: herbicidal effect test by treatment of dry field farming soil (one day after seeding); details: 120 g/10a active ingredient, evaluated 14 days after treatment
Method in brief: (§3)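 Alluvial dry-field soil in pots, top 1 cm mixed with 20 seeds per weed species. One day after seeding, the water-diluted emulsion was sprayed onto the soil surface at 100 L per 10 ares (120 g active ingredient per 10 ares). Duplicate pots; herbicidal rate (%) from plant dry weight versus untreated, 14 days after treatment.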

Chenopodium album [8] = assay: as above; details: 120 g/10a active ingredient, evaluated 14 days after treatment
Method in brief: as §3

Echinochloa crus-galli [9] = assay: as above; details: 120 g/10a active ingredient, evaluated 14 days after treatment
Method in brief: as §3

southern crabgrass [10] = assay: as above; details: 120 g/10a active ingredient, evaluated 14 days after treatment
Method in brief: as §3

Amaranthus viridis [11] = assay: Test Example 4: herbicidal effect test by treatment of leave and stem in dry field farming (seven days after seeding); details: 120 g/10a active ingredient; emulsion sprayed seven days after seeding; evaluated 14 days after treatment
Method in brief: (§4)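 Duplicate pots were scored 14 days post-spray by dry weight, herbicidal rate = {1 − treated/untreated average dry weight} × 100. The water-diluted emulsion, equivalent to 120 g active ingredient per 10 ares in 100 L, was applied seven days after sowing 20 seeds each into the upper 1 cm of alluvial soil.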

Chenopodium album [12] = assay: as above; details: 120 g/10a active ingredient; emulsion sprayed seven days after seeding; evaluated 14 days after treatment
Method in brief: as §4

Echinochloa crus-galli [13] = assay: as above; details: 120 g/10a active ingredient; emulsion sprayed seven days after seeding; evaluated 14 days after treatment
Method in brief: as §4

southern crabgrass [14] = assay: as above; details: 120 g/10a active ingredient; emulsion sprayed seven days after seeding; evaluated 14 days after treatment
Method in brief: as §4

Row | SMILES | Herbicidal rate (%) Echinochloa crus-galli (Echinochloa crus-galli [1]) [%] | Herbicidal rate (%) Scirpus juncoides (Scirpus juncoides [2]) [%] | Herbicidal rate (%) Lindernia pyxidaria [3] [%] | Herbicidal rate (%) Monochoria vaginalis [3] [%] | Herbicidal rate (%) Echinochloa crus-galli (Echinochloa crus-galli [4]) [%] | Herbicidal rate (%) Scirpus juncoides (Scirpus juncoides [5]) [%] | Herbicidal rate (%) Lindernia pyxidaria [6] [%] | Herbicidal rate (%) Monochoria vaginalis [6] [%] | herbicidal rate, Amaranthus viridis (Amaranthus viridis [7]) [%] | herbicidal rate, Chenopodium album (Chenopodium album [8]) [%] | herbicidal rate, Echinochloa crus-galli (Echinochloa crus-galli [9]) [%] | herbicidal rate, southern crabgrass (southern crabgrass [10]) [%] | herbicidal effect (herbicidal rate), Amaranthus viridis (Amaranthus viridis [11]) [%] | herbicidal effect (herbicidal rate), Chenopodium album (Chenopodium album [12]) [%] | herbicidal effect (herbicidal rate), Echinochloa crus-galli (Echinochloa crus-galli [13]) [%] | herbicidal effect (herbicidal rate), southern crabgrass (southern crabgrass [14]) [%]
1 | CCCC(c1ccccc1)n1oc(=O)c(Cc2ccccc2NS(=O)(=O)C(F)(F)F)c1C (stereo not shown) [Compound 1-212] | 90 | 90 | 90 | 80 | 90 | 90 | 70 | 90 | 0 | 0 | 90 | 90 | 80 | 60 | 90 | 90
2 | Cc1c(Cc2ccccc2NS(=O)(=O)C(F)(F)F)c(=O)on1Cc1ccccc1 [Compound 1-180] | 90 | 90 | 90 | 90 | 70 | 90 | 80 | 90 | 30 | 30 | 80 | 80 | 0 | 40 | 50 | 50
3 | CCOC(=O)N(c1ccccc1Cc1c(C)n(CC(C)CC)oc1=O)S(=O)(=O)C(F)(F)F (stereo not shown) [Compound 1-611] | 100 | 90 | 90 | 80 | 100 | 90 | 70 | 80 | 40 | 40 | 70 | 70 | 60 | 50 | 80 | 70
4 | CCC(CC)n1oc(=O)c(Cc2ccccc2N(C(C)=O)S(=O)(=O)C(F)(F)F)c1C [Compound 1-295] | 90 | 90 | 90 | 90 | 90 | 90 | 90 | 90 | 90 | 90 | 90 | 90 | 40 | 40 | 90 | 90
5 | CCC(CC)n1oc(=O)c(Cc2ccccc2N(C(=O)CC(C)C)S(=O)(=O)C(F)(F)F)c1C [Compound 1-353] | 90 | 90 | 90 | 90 | 90 | 90 | 90 | 90 | 90 | 90 | 90 | 90 | 40 | 40 | 90 | 90
6 | CCCC(C)n1oc(=O)c(Cc2ccccc2N(C(=O)CC(C)C)S(=O)(=O)C(F)(F)F)c1C (stereo not shown) [Compound 1-356] | 100 | 90 | 90 | 60 | 100 | 90 | 60 | 70 | 90 | 60 | 90 | 90 | 60 | 60 | 90 | 80
7 | CCC(C)n1oc(=O)c(Cc2ccccc2N(C(=O)OC(C)C)S(=O)(=O)C(F)(F)F)c1C (stereo not shown) [Compound 1-642] | 90 | 90 | 90 | 90 | 90 | 90 | 90 | 90 | 90 | 90 | 90 | 90 | 40 | 40 | 90 | 90
8 | Cc1c(Cc2ccccc2N(C(=O)C(C)C)S(=O)(=O)C(F)(F)F)c(=O)on1C(C)c1ccccc1 (stereo not shown) [Compound 1-337] | 90 | 90 | 90 | 90 | 90 | 90 | 90 | 90 | 90 | 90 | 90 | 90 | 40 | 40 | 90 | 90
9 | CCC(C)n1oc(=O)c(Cc2ccccc2N(C(=O)C2CCCCC2)S(=O)(=O)C(F)(F)F)c1C (stereo not shown) [Compound 1-432] | 90 | 90 | 90 | 90 | 90 | 90 | 90 | 90 | 90 | 90 | 90 | 90 | 40 | 40 | 90 | 90
10 | Cc1c(Cc2ccccc2N(S(=O)(=O)C(F)(F)F)S(=O)(=O)C(F)(F)F)c(=O)on1C(C)Cc1ccccc1 (stereo not shown) [Compound 1-1045] | 100 | 90 | 90 | 80 | 90 | 90 | 60 | 90 | 40 | 40 | 90 | 50 | 60 | 0 | 90 | 40
